Data published in patent publication US9765115B2, “Inhibitors of metastasis, methods of generating such inhibitors and their therapeutic applications” (Board of Supervisors of Louisiana State University acting …, priority 2011, dated 2017).

Assays:
PC-3-CTR-wt cells = assay: Matrigel in vitro invasion assay; assay type: cell-based; details: 50 nM CT, 48 h
Method: Invasion experiments were conducted in Matrigel™ invasion chambers as previously described (Sabbisetti et al., 2005).
CT increases invasiveness, and even induces an invasive phenotype in non-invasive prostate cancer cells. The role of PDZ-binding motif in CT-stimulated invasion was examined. FIG. 2C depicts CTR-C PDZ-binding motif mutation and effects on cell invasion. PC-3V, PC-3 CTRwt and PC-3 CTRΔESS cells were added to upper insert of invasion chambers with or without 50 nM CT, and cells that passed through the Matrigel™ barrier were counted after 48 h. The results are expressed as mean number of invaded cells per 400× field ±SEM (n=6; *p<0.05 (PC-3V v PC-3CTR-wt); $ p<0.05 (PC-3CTR-wt v PC-3CTRΔESS); $$-p<0.05 (PC-3CTRwt+CT v PC-3CTRΔESS+CT) (one-way ANOVA and Newman-Keul's test)). Expression of CTRwt in PC-3 cells increased invasion by 2.5-fold (FIG. 2C).
As shown above, CTR binds to ZO-1 through PDZ interaction (i.e. PDZ ligand on C-tail of CTR binds to the PDZ domain of ZO-1). To attenuate this binding, ZO-1 was saturated with a small C-terminal peptide of CTR sequence containing the PDZ-binding motif. Since ZO-1 is an intracellular membrane protein, the interfering peptide was delivered inside the plasma membrane. It has been shown that trans-activating transcriptional activator (TAT) protein (86-mer polypeptide) from HIV-1 enters mammalian cells when added to the surrounding media (Frankel et al., 1988; Green et al., 1989). Certain small regions of such proteins (10-16-mers) called protein transduction domains (PTDs), also efficiently traverse biological membranes (Elliott et al., 1997). Therefore, a fusion peptide Pep 1 was synthesized of TAT-peptide sequences of HIV virus and CTR-C(N-[…]-C (SEQ ID NO:2), CTR-C sequence underlined). The first experiment was to see if Pep I binds to ZO-1 in reversible fashion. For this, amino acid Y in Pep I was labeled with ^125I, and the binding with ZO-1 analyzed in the presence/absence of unlabeled Pep I (1000×; 20 μM). PC-3CTR-ZO-1-MYC cells were first incubated with unlabeled Pep I or control peptide (20 μM) for 5 min. The cells were then incubated with ^125I-pep I or C for 25 min. The cells were then washed in IP buffer, treated with DSP, and lysed. ZO-1 IPs were obtained, fractionated on SDS-PAGE, and autoradiographed. […] Next, whether Pep I competes with CTR for ZO-1 binding was tested. For this, PC-3-CTR-wt cells were treated with CT (50 nM) and or Pep I (50 μM) for 15 min. The CTR IPs were then immunoblotted and probed for ZO-1 immunoreactivity. […] Next, the biological impact of this phenomenon was examined by testing the effect of Pep I on CTR-stimulated invasion.
The binding of ZO-1 and CTR can be attenuated by saturating ZO-1 with a small C-terminal peptide of CTR sequence containing the PDZ ligand. Since ZO-1 is an intracellular membrane protein, the interfering peptide must penetrate plasma membrane to interact with ZO-1. As discussed above, fusion peptides of small TAT peptides (12-mer) and six (Pep I) or eight amino acids (Pep II) of C-terminal of CTR were synthesized. Control peptides were TAT peptides (12-mer) containing random amino acid sequence of equivalent size (6-mer). […] Thus, these two peptides (sequences given below) could be used therapeutically to attenuate or inhibit metastasis in cancerous cells.

[1] = test system: TCF/LEF promoter activity in PC-3 cells; assay: TCF/LEF luciferase reporter assay (pGL3-OT/pGL3-OF); assay type: cell-based; details: 50 nM CT
Method: FIG. 28 depicts effect of CT on TCF/LEF promoter activity in PC-3 cells with various compounds added with CT. Cells were seeded into 6-well plates and transfected with the pGL3-OT luciferase/pRL-tK plasmids or pGL3-OF-luciferase/pRL-TK plasmids. The cells were then incubated in complete medium for 48 h, after which they were serum-starved for 16 h. The cells were then treated with CT and/or PMH compounds, and the cell lysates analyzed for luciferase activity. The results are expressed as relative light units (RLU) after normalization with Renilla luciferase activity. The experiment was repeated three separate times, and results expressed as means±S.E.M.
Certain hydantoin-like molecules isolated from sea sponge have been identified that could inhibit prostate cell metastasis (Shah et al., 2009; Mudit et al., 2011). Disruption of junctional complex stabilizes intracellular β-catenin, leading to its translocation in the nucleus, where it can bind to its partner LEF-1 (lymphocyte enhancer binding factor-1) to transactivate target genes. The transcription of TCF/LEF genes can be quantitated by using luciferase-based reporter plasmids, pGL3-OT and pGL3-OF, the improved version of the Topflash and Fopflash vectors (Shah et al., 2009). This assay can be used to comparatively evaluate junction disrupting activity of multiple compounds in a single assay. […] The two compounds, MRM-6 and MRM-4, derivatives of PMH whose structures are shown below, were obtained from Dr. K. A. El Sayed.

Substance: calcitonin [CT]
- additional increase in invasion (PC-3-CTR-wt cells): 2.5 fold
- increase in luciferase activity (RLU) [1]: over 50 fold
